# Assay results as given in ChEMBL document CHEMBL1201862, “PubChem BioAssay data set” (2004).
# Activity calls are given as the source filed them.
# Assays:
# [1] = test system: Candida albicans; assay: single-agent antifungal toxicity in C. albicans – CaCi-2 strain, Alamar Blue, dry powder, set 2, counter-screen for antifungal drug resistance project, dose response (AID 488893); assay type: functional, organism-based
# [2] = test system: Candida albicans; assay: Candida growth reduction in fluconazole presence – CaCi-2 strain, Alamar Blue, dry powder, set 2, antifungal resistance reversal project, dose response (AID 488930); assay type: functional, organism-based
# [3] = test system: Candida albicans; assay: resistant Candida growth with fluconazole co-treatment – CaCi-8 strain, Alamar Blue, dry powder, set 2, dose response (AID 488909); assay type: functional, organism-based
# [4] = test system: Candida albicans; assay: fluconazole-resistant Candida strain growth inhibitors – CaCi-8 strain, dry powder, set 4, dose response (AID 488950); assay type: functional, organism-based
# [5] = test system: Candida albicans; assay: C. albicans growth inhibition with fluconazole – CaCi-2 strain, Alamar Blue, dry powder, set 4, dose response (AID 488943); assay type: functional, organism-based
# [6] = biological target: T1, Sentrin-specific protease 6 (Homo sapiens, UniProt Q9GZR1); assay: inhibition of human SENP6 catalytic domain – biochemical, luminescence, set 2, SAR follow-up (AID 588598); assay type: functional
# T1 sequence (Q9GZR1 whole entry): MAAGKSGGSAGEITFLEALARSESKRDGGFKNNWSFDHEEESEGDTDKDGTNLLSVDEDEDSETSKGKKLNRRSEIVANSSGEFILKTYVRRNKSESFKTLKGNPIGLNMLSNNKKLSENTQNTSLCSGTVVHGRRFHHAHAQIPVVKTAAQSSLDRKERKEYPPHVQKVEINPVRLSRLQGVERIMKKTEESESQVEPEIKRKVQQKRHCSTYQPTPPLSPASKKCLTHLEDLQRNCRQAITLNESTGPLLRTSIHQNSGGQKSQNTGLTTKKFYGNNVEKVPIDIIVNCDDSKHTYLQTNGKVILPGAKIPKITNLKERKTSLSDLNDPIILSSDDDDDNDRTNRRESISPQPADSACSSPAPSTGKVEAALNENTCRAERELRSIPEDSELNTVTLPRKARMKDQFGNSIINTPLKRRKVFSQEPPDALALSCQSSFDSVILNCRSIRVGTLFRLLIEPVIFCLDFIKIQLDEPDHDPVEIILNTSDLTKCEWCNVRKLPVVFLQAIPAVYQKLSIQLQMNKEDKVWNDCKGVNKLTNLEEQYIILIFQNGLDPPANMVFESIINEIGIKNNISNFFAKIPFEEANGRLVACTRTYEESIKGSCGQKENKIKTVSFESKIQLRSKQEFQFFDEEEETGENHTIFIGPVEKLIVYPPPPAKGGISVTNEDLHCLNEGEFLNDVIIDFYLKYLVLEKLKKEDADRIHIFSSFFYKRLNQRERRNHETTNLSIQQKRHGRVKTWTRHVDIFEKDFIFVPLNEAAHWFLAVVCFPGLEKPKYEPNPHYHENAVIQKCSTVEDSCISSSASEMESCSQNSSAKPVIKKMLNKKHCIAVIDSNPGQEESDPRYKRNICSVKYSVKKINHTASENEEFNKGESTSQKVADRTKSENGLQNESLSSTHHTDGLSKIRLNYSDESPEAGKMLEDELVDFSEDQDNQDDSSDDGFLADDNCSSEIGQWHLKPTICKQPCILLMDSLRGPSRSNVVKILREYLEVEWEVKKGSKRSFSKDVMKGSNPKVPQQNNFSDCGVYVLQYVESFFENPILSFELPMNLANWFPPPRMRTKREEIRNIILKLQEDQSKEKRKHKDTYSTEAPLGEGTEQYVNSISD
# [7] = biological target: T2, Sentrin-specific protease 8 (Homo sapiens, UniProt Q96LD8); assay: inhibition of sentrin protease 8 – biochemical, luminescence, set 2, SAR follow-up (AID 588601); assay type: functional
# T2 sequence (Q96LD8 whole entry): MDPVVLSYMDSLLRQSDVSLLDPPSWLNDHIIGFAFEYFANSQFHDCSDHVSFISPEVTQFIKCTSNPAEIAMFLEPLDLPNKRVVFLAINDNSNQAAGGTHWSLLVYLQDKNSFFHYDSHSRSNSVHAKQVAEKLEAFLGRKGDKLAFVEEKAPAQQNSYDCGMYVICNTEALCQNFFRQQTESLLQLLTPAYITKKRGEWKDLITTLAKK
# [8] = biological target: T3, Caspase-3 (Homo sapiens, UniProt P42574); assay: inhibition of recombinant caspase-3 activity – biochemical, luminescence, set 2, selectivity assay for SENP protease inhibitor project, SAR follow-up (AID 588599); assay type: functional
# T3 sequence (P42574 whole entry): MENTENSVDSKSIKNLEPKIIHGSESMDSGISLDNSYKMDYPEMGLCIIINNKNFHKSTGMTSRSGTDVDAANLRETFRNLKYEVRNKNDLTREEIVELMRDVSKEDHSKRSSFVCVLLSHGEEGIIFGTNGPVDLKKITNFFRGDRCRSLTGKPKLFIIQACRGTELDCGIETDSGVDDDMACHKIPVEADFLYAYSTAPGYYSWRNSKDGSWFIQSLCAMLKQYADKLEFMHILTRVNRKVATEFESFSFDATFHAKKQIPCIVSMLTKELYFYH
# [9] = biological target: T4, Sentrin-specific protease 7 (Homo sapiens, UniProt Q9BQF6); assay: inhibition of human SENP7 cleavage activity – biochemical, luminescence, set 2, SAR follow-up (AID 588600); assay type: functional
# T4 sequence (Q9BQF6 whole entry): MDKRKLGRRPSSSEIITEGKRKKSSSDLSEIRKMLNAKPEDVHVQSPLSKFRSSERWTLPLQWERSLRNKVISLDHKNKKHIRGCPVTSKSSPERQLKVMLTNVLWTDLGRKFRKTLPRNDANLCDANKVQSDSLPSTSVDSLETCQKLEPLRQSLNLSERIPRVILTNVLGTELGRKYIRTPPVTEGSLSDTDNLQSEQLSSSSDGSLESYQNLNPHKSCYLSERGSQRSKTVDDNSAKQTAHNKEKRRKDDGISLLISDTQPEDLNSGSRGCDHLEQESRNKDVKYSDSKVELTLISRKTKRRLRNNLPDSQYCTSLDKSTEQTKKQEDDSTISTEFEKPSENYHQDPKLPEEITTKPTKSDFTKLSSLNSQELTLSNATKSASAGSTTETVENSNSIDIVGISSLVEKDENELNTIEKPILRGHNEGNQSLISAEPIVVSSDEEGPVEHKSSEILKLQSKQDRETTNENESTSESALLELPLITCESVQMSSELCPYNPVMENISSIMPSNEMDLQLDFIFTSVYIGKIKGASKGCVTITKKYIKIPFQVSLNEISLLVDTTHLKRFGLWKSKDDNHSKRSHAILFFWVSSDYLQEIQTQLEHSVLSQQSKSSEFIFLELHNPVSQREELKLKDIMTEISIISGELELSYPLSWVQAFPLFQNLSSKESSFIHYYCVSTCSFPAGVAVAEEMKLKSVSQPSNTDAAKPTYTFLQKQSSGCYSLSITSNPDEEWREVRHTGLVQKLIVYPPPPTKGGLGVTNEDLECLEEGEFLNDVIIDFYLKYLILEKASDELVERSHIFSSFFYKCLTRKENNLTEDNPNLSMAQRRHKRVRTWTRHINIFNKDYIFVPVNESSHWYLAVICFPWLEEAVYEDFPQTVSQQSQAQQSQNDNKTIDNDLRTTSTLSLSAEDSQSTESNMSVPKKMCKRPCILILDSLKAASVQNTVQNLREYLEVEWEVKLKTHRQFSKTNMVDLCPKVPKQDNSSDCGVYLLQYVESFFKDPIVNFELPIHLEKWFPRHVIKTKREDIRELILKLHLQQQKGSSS
# [10] = biological target: T5, Streptokinase A (Streptococcus pyogenes serotype M1, UniProt P10520); assay: viability-normalized secreted streptokinase activity reduction – plasminogen activation absorbance, OD405, dose response (AID 1914); assay type: functional, Streptococcus pyogenes M1 GAS;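 also: secreted streptokinase activity via plasminogen activation per viability signal from cell pellet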
# T5 sequence (P10520 whole entry): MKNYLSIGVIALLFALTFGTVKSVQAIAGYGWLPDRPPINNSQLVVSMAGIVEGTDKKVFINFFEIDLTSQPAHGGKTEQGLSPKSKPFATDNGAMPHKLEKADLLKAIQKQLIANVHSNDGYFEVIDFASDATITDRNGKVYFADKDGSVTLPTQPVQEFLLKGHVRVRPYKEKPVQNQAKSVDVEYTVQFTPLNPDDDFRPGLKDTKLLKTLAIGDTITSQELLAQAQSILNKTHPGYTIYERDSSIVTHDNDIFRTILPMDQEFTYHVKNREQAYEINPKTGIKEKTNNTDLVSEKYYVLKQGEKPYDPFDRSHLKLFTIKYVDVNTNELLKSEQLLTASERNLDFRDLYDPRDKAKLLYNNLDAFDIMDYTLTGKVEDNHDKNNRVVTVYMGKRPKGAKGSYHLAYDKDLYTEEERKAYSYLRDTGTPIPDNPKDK
# [11] = cAMP pathway inhibition in counterscreen cell line – TR-FRET cAMP detection, counter-screen for MC4R biased antagonist project, dose response (AID 602305); assay type: functional, cell-based;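 also: U2OS cells stimulated with forskolin near its EC80 as the cAMP inducer; potency is for inhibition of forskolin-stimulated cAMP signaling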
# [12] = biological target: 5-hydroxytryptamine receptor 5A (Homo sapiens, UniProt P47898); assay: Counterscreen for agonists of OPRM1-OPRD1 heterodimerization: luminescence-based cell-based high throughput dose response assay to identify agonists of 5-hydroxytryptamine (serotonin) 5A receptor (HTR5A). [Related pubchem assays (depositor defined):AID504326, AID504355, AID504692, AID504904, AID504905]; assay type: functional
# Chain of 5-hydroxytryptamine receptor 5A (P47898 whole entry): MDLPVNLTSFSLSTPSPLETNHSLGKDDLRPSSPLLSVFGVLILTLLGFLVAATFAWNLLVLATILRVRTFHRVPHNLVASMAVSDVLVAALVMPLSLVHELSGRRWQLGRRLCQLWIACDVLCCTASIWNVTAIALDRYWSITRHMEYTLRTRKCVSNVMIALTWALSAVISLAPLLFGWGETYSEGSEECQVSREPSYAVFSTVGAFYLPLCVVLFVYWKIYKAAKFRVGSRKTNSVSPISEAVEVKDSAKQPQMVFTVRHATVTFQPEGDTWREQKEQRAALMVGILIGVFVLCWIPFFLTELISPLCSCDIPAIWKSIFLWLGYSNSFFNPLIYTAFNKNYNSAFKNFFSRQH
# [13] = test system: Streptococcus; assay: GAS UMAA2166 growth inhibition – luminescence, BacTiterGlo, counter-screen for streptokinase expression inhibitor project, dose response (AID 1915); assay type: functional, organism-based;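 also: potency for reduction of bacterial viability or growth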
# [14] = biological target: T6, Microphthalmia-associated transcription factor (Homo sapiens, UniProt O75030); assay: reducers of TRPM1 reporter luminescence, concentration series – cell-based, SK-MEL-5, cherry-picked, set 3, MITF inhibitor project, dose response (AID 493073); assay type: functional;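 also: SK-MEL-5 melanoma cells with luciferase driven by the MITF target TRPM1 promoter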
# T6 sequence (O75030 whole entry): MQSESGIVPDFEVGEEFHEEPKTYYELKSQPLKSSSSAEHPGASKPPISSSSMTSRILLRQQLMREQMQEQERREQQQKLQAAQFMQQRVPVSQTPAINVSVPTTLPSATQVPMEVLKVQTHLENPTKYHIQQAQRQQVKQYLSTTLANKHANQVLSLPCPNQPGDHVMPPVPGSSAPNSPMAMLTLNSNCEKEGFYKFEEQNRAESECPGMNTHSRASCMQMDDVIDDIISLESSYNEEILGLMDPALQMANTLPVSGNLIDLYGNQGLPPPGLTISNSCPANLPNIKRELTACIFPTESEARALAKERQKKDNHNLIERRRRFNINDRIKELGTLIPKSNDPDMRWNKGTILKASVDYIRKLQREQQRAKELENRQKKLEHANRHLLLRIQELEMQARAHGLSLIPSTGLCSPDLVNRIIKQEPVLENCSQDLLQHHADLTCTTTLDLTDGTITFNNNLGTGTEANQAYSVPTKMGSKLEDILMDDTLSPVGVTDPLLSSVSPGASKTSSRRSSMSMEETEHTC
# [15] = test system: Streptococcus sp. 'group A'; assay: Streptococcus pyogenes SK(-)GAS viability under kanamycin – luminescence, BacTiterGlo, confirmation, counter-screen for streptokinase expression inhibitor project, dose response (AID 1900); assay type: functional, organism-based
# [16] = biological target: Neurotensin receptor type 1 (Homo sapiens, UniProt P30989); assay type: functional;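 also: Image-based confirmatory dose-response assay measuring agonist activity at NTR1; NTR1-expressing U2OS osteosarcoma cells imaged for beta-arrestin GFP spot formation; agonist potency where compounds increase beta-arrestin recruitment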
# Chain of Neurotensin receptor type 1 (P30989 whole entry): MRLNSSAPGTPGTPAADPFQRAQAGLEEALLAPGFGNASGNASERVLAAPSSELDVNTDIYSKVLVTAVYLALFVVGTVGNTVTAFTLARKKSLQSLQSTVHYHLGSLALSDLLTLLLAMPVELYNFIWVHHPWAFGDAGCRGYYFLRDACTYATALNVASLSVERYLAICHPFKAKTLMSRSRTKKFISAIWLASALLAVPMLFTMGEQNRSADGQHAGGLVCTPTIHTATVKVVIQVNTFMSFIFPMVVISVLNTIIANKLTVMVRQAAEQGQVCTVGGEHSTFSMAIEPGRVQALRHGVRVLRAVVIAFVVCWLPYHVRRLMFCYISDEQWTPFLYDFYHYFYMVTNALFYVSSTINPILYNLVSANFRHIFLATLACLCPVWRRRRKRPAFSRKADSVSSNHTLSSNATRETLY
# [17] = biological target: Melanocortin receptor 4 (Homo sapiens, UniProt P32245); assay: inhibitors of MC4R cAMP signaling – cell-based, TR-FRET, biased antagonists, dose response (AID 602298); assay type: functional;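 also: antagonist potency against agonist-stimulated cAMP production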
# Chain of Melanocortin receptor 4 (P32245 whole entry): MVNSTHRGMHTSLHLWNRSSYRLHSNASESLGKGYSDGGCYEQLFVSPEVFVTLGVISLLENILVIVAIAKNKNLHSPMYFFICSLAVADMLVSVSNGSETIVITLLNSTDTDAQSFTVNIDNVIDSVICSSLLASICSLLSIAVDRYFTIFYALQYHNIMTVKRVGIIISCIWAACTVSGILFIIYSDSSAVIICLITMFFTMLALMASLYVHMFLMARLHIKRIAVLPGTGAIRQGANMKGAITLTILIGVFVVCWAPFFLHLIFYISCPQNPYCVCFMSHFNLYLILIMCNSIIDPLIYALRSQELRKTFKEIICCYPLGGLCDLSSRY
# [18] = biological target: Mu-type opioid receptor (Homo sapiens, UniProt P35372); assay: (§1) Counterscreen for agonists of heterodimerization of the mu 1 (OPRM1) and delta 1 (OPRD1) opioid receptors: Luminescence-based cell-based high throughput dose response assay to identify agonists of OPRM1 homodimerization.; assay type: functional
# Chain of Mu-type opioid receptor (P35372 whole entry): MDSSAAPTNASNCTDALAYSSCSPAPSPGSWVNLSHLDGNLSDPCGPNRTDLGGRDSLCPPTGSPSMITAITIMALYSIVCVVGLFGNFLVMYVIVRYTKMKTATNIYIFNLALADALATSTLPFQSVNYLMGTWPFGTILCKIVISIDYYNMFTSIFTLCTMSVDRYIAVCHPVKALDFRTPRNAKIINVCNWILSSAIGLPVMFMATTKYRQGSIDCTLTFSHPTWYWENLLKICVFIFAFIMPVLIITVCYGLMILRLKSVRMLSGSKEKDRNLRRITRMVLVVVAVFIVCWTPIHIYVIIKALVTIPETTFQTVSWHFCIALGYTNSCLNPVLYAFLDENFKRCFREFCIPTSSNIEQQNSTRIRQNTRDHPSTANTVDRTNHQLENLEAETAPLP
# [19] = biological target: Delta-type opioid receptor (Homo sapiens, UniProt P41143); assay: as §1, with “of OPRD1” for “of OPRM1”, “homodimerization. [Related pubchem assays (depositor defined):AID504326, AID504355, AID504692, AID504904, AID504905]” for “homodimerization.”; assay type: functional
# Chain of Delta-type opioid receptor (P41143 whole entry): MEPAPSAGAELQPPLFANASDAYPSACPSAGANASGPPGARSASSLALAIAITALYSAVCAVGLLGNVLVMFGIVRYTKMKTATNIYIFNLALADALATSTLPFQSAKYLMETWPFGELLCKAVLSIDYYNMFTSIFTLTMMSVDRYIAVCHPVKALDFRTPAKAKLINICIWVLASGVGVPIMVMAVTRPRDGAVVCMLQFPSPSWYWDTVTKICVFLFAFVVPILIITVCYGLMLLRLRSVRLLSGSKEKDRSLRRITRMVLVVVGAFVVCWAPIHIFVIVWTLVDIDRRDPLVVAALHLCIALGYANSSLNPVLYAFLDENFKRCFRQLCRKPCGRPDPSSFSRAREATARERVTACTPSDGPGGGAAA
# [20] = test system: A-375; assay: MITF: Counter assay: A375 proliferation Measured in Cell-Based System Using Plate Reader - 2084-03_Inhibitor_Dose_DryPowder_Activity. [Related pubchem assays (depositor defined):AID488944]; assay type: functional; settings: Homo sapiens
structure (smiles),measurement,setting,value
COc1ccc(C(=O)N2CCN(c3ccnc4cc(Cl)ccc34)CC2)cc1,AC50,[1],32.2 µM (active)
same,AC50,[2],4.25 µM (active)
same,AC50,[3],10.2 µM (active)
same,AC50,[4],5.38 µM (active)
same,AC50,[5],4.15 µM (active)
Cc1[nH]c2ccccc2c1C(=O)C(=O)NCCCN1CCOCC1,IC50,[6],> 99 µM (inactive)
same,IC50,[7],> 99 µM (inactive)
same,IC50,[8],> 99 µM (inactive)
same,IC50,[9],> 99 µM (inactive)
CN(C)S(=O)(=O)c1ccc(-c2csc(N/N=C/c3ccc(O)cc3)n2)cc1,EC50,[10],> 150 µM (not active)
same,IC50,[11],> 64.6 µM (inactive)
same,EC50,[12],> 92.5 µM (inactive)
same,EC50,[13],13.3 µM (active)
same,AC50,[14],4.6 µM (active)
same,EC50,[15],8.68 µM (active)
same,EC50,[16],6.62 µM (active)
same,IC50,[17],> 64.6 µM (inactive)
same,EC50,[18],> 92.5 µM (inactive)
same,EC50,[19],> 92.5 µM (inactive)
same,AC50,[20],30.8 µM (active)
